According to patent US20240391954A1, “MC4R AGONIST PEPTIDES” (The Regents of the University of Michigan, priority 2021, published 2024):
Values joined by “and” are separate entries in the source; they are usually repeats but may differ in a detail not shown here. Equal entries are not always repeated. Positions of bridges follow the written chain, without caps; N, C: chain ends. Non-standard residues stand in square brackets, D forms with d. Residues, ends and D or L forms follow the SMILES beside them. Nle = CCCC[C@H](N)C(=O)O

Key:
[1] = Pharmacokinetics: plasma and brain concentration after IP injection; type: in vivo, mouse; settings: IP 15 mg/kg; for Brain concentration, individual mice 1-3 / Plasma concentration, individual mice 1-3: 15 mg/kg
Method: FIG. 5. Pharmacokinetic data for an exemplary peptide relative to setmelanotide. Peptides at 1.5 mg/mL in PBS containing 10% DMSO and 10% PEG-400 were given by IP injection (15 mg/kg) to female CD-1 mice (n=15). At the given time points (0.5 h, 2 h, 4 h, 7 h and 24 h), brain samples were taken out and frozen at −80° C. immediately for later preparation and analysis, and blood samples were collected using heparinized calibrated pipettes. Blood samples were centrifuged at 15000 rpm for 10 min. Subsequently, blood plasma was collected from the upper layer. The plasma was frozen at −80° C. for later analysis. Peptide concentrations at times indicated were determined by LC MS/MS, using non-zero standards in blank Plasma and Brain Samples.
The drug at 1.5 mg/mL in PBS containing 10% DMSO and 10% PEG-400 was given by IP injection (15 mg/kg). At the given time points (0.5 h, 2 h, 4 h, 7 h and 24 h), brain samples were taken out and frozen at −80° C. immediately for later preparation and analysis, and blood samples were collected using heparinized calibrated pipettes. Blood samples were centrifuged at 15000 rpm for 10 min. Subsequently, blood plasma was collected from the upper layer. The plasma was frozen at −80° C. for later analysis.
The analytical curves were constructed using non-zero standards in the blank Plasma and Brain Samples. A blank sample (matrix sample processed without internal standard) was used to exclude contamination. The linear regression analysis of CTX1227/setmelanotide were performed by plotting the peak area ratio (y) against the CTX1227/setmelanotide concentration (x) in ng/mL, respectively.

Mouse plasma stability = type: in vitro ADME; settings: pooled mouse plasma, 37° C.
Summary of the method: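 Compounds at 1 μM in pooled mouse plasma at 37° C. were sampled at 0.5–240 min and quenched with cold acetonitrile containing internal standard. LC/MS/MS gave % remaining. The slope of ln(compound/IS peak-area ratio) against time was determined.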

[2] = Plasma protein binding (Centrifree ultrafiltration); type: in vitro ADME
Summary of the method: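 Compound added to plasma from 1 mM, 100 µM and 10 µM DMSO stocks (1:100), incubated 5 min at 25 °C, then ultrafiltered at 2000× g for 20 min. Plasma and ultrafiltrate quantified by LC-MS/MS; % free = filtrate/plasma ×100, % bound = 100 − % free.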

human MC3R = target: T1, human MC3R (Homo sapiens, UniProt P41968); assay: split-luciferase cAMP sensor assay, agonist mode (measurement window 1), hMC3R; type: cell-based
T1 construct: expressed in transfected cells; host or cells: HEK-293 cells stably expressing the GScAMP22F split-luciferase cAMP sensor (parent reporter line from Promega); MC3R clone generated in-house, G418 selection
T1 sequence (P41968 whole entry): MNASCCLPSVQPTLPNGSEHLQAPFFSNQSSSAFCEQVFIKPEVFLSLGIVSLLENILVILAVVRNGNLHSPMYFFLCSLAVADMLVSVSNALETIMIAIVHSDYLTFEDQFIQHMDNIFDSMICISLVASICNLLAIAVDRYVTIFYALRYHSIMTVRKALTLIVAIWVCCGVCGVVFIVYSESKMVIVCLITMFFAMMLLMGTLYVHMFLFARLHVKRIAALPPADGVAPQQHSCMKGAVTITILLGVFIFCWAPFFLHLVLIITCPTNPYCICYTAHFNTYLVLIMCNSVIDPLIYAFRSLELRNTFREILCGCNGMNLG
Summary of the method: (§1)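 Live stable cell lines carrying receptor plus GloSensor cAMP22f split-luciferase, loaded with 4% D-luciferin in serum-free medium (~1% serum estimated during assay). Luminescence recorded during in-line peptide addition; direct agonist effect read in window 1, with 20 μM forskolin as normalization reference. EC50 from four-parameter sigmoid fit.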

human MC4R = target: T2, human MC4R (Homo sapiens, UniProt P32245); assay: split-luciferase cAMP sensor assay, agonist mode (measurement window 1), hMC4R; type: cell-based; settings: % maximal activation, agonist mode; read-out: MC4R cAMP % max activation
T2 construct: host or cells: HEK-293 cells stably expressing the GScAMP22F split-luciferase cAMP sensor and hMC4R, G418 selection
T2 sequence (P32245 whole entry): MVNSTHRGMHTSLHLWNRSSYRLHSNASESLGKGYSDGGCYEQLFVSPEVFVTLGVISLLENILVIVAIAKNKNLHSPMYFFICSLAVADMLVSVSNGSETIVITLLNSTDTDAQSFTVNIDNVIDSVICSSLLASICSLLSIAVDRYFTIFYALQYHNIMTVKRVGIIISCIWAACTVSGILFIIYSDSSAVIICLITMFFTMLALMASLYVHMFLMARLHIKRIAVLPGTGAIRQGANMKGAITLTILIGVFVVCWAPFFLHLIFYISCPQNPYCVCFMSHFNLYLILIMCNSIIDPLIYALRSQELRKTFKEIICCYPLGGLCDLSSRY
Summary of the method: as §1

CCCC[C@H](NC(=O)[C@H](CCCNC(=N)N)NC(C)=O)C(=O)N[C@H]1CSSC[C@@H](C(N)=O)NC(=O)[C@H](Cc2c[nH]c3ccccc23)NC(=O)[C@H](CCCNC(=N)N)NC(=O)[C@@H](Cc2ccccc2)NC(=O)[C@H](Cc2c[nH]cn2)NC1=O [CTX-1227, Arg-Nle-cyclo(Cys-His-D-Phe-Arg-Trp-Cys)] (Ac-R[Nle]CH[dF]RWC-NH2; disulfide 3-8 (inferred))
Brain concentration, individual mice 1-3 ([1]; 0.5 h, brain, individual animals): 99 ng/g and 263.5 ng/g and 182 ng/g
Plasma concentration, individual mice 1-3 ([1]; 0.5 h, plasma, individual animals): 20900 ng/mL and 25000 ng/mL and 68700 ng/mL
Brain concentration, individual mice 1-3 ([1]; 2 h, brain, individual animals): 287.5 ng/g and 176.5 ng/g and 327.5 ng/g
Plasma concentration, individual mice 1-3 ([1]; 2 h, plasma, individual animals): 50200 ng/mL and 17300 ng/mL and 20700 ng/mL
Brain concentration, individual mice 1-3 ([1]; 4 h, brain, individual animals): 158 ng/g and 142.5 ng/g and 210 ng/g
Plasma concentration, individual mice 1-3 ([1]; 4 h, plasma, individual animals): 19400 ng/mL and 23300 ng/mL and 33400 ng/mL
Brain concentration, individual mice 1-3 ([1]; 7 h, brain, individual animals): 223 ng/g and 224.5 ng/g and 119 ng/g
Plasma concentration, individual mice 1-3 ([1]; 7 h, plasma, individual animals): 9360 ng/mL and 9210 ng/mL and 2880 ng/mL
Brain concentration, individual mice 1-3 ([1]; 24 h, brain, individual animals): BlQ and BLQ (2×)
Plasma concentration, individual mice 1-3 ([1]; 24 h, plasma, individual animals): BLQ
tissue level at time at 0.5 h ([1]; female, CD-1, mouse, mice, 0.5 h, brain, mean of 3): 182 ng/g
level at 0.5 h ([1]; female, CD-1, mouse, mice, 0.5 h, plasma, mean of 3): 38200 ng/mL
tissue level at time at 2 h ([1]; female, CD-1, mouse, mice, 2 h, brain, mean of 3): 264 ng/g
level at 2 h ([1]; female, CD-1, mouse, mice, 2 h, plasma, mean of 3): 29400 ng/mL
tissue level at time at 4 h ([1]; female, CD-1, mouse, mice, 4 h, brain, mean of 3): 170 ng/g
level at 4 h ([1]; female, CD-1, mouse, mice, 4 h, plasma, mean of 3): 25400 ng/mL
tissue level at time at 7 h ([1]; female, CD-1, mouse, mice, 7 h, brain, mean of 3): 189 ng/g
level at 7 h ([1]; female, CD-1, mouse, mice, 7 h, plasma, mean of 3): 7150 ng/mL
level at 24 h ([1]; female, CD-1, mouse, mice, 24 h, plasma, individual animals, read-out: Plasma concentration, individual mice 1-3): 15 ng/mL
half-life at 1 µM (Mouse plasma stability): 1.05 h
fraction unbound at 5 min, 0.1 µM ([2]; 0.1 uM): 0.5
fraction unbound at 5 min, 1 µM ([2]; 1.0 uM): 0.53
fraction unbound at 5 min, 10 µM ([2]; 10.0 uM): 0.46
Emax (human MC3R; % maximal activation, agonist mode, read-out: MC3R cAMP % max activation): 96%
EC50 (human MC3R; HEK-293 cells stably expressing hMC3R, agonist mode, read-out: MC3R cAMP EC50): 2.8 nM
MC4R selectivity vs MC3R (human MC3R; MC4R versus MC3R): 11
Emax (human MC4R): 103%
